Data taken from patent publication US20210317140A1, “Heterocyclic Compounds and Methods of Use” (MEDIVATION TECHNOLOGIES, INC, priority 2013, published 2021).

Experiments:
Assay type in all cases: biochemical
TEC = molecular target: T1, TEC (Homo sapiens, UniProt P42680); assay: TEC kinase profiling (BTK protocol); details: for TEC @ 0.3 μM (% Inh): 0.3 μM compound; for IC50: 10 dose IC50
T1 construct: purchased Reaction Biology Corporation
T1 sequence (P42680 1-631): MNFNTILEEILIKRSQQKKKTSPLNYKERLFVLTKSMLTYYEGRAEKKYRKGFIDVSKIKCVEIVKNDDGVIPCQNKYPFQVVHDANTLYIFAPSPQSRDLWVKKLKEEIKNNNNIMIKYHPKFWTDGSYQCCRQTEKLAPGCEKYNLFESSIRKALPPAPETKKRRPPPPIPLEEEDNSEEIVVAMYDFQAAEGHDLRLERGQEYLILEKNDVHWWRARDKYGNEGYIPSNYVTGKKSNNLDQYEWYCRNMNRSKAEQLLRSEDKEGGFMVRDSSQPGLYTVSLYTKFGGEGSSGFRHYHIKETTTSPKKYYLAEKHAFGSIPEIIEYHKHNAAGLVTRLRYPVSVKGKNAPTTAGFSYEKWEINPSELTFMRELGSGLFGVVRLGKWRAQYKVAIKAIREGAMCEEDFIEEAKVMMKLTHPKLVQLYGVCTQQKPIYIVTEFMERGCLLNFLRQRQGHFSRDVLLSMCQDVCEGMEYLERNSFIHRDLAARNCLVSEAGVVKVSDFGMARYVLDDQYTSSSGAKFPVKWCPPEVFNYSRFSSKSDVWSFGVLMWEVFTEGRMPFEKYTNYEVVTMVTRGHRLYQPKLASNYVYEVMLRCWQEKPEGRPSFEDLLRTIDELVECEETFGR
Protocol: BTK assay: In vitro profiling protein kinases was performed using the “HotSpot” assay platform. Briefly, specific kinase/substrate pairs along with required cofactors were prepared in reaction buffer. Compounds were prepared as 10 mM stock solutions in DMSO. Compounds were delivered into the reaction, followed 15-20 minutes later by addition of a mixture of ATP (Sigma, St. Louis Mo.) and ^33P ATP (Perkin Elmer, Waltham Mass.) to a final concentration of 10 μM. […] IC50 values and curve fits were obtained using Prism (GraphPad Software). Buffer Conditions: 20 mM Hepes (pH 7.5), 10 mM MgCl2, 1 mM EGTA, 0.02% Brij35, 0.02 mg/mL BSA, 0.1 mM Na3VO4, 2 mM DTT, 1% DMSO.

PI3Kδ = molecular target: T2, PI3Kδ (Homo sapiens, UniProt O00329); assay: PI3Kδ kinase assay (HTRF, PIP3 detection); details: for PI3Kδ @ 0.1 μM (% Inh): 0.1 μM compound; for PI3Kδ @ 0.1 μM (% Inh) / PI3Kδ @ 1 μM (% Inh) / PI3Kδ @ 0.01 μM (% Inh): 10 μM ATP; for PI3Kδ @ 1 μM (% Inh): 1 μM compound; for IC50: 10 dose IC50, 10 μM ATP; for PI3Kδ @ 0.01 μM (% Inh): 0.01 μM compound
T2 construct: purchased Reaction Biology Corporation
T2 sequence (O00329 whole entry): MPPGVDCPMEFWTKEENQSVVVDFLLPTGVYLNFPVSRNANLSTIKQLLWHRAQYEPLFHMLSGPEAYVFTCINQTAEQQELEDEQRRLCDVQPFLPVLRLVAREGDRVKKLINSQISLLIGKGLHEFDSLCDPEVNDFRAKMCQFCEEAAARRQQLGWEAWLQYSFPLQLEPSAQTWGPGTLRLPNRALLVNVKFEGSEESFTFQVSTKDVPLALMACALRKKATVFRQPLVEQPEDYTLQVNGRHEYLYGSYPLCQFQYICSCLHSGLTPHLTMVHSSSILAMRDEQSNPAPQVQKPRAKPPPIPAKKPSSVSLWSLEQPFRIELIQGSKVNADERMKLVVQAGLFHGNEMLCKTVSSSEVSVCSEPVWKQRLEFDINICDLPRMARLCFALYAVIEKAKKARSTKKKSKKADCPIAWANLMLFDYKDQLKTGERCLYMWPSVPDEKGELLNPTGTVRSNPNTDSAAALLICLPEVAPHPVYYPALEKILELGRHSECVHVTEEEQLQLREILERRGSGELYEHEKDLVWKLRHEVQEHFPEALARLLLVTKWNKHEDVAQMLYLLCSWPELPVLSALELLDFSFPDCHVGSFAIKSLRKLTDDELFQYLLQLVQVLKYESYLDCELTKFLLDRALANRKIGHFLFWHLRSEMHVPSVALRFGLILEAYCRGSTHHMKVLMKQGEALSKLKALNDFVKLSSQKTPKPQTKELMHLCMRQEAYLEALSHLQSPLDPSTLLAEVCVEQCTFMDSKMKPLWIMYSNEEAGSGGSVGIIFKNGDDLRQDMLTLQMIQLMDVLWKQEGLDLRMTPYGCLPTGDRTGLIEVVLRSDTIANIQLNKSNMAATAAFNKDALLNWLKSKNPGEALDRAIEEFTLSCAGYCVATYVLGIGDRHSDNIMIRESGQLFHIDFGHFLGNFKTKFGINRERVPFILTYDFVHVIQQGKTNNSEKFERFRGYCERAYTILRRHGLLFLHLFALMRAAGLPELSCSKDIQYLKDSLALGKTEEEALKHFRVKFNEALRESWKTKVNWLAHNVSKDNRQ
T2 sequence (P27986 whole entry partner): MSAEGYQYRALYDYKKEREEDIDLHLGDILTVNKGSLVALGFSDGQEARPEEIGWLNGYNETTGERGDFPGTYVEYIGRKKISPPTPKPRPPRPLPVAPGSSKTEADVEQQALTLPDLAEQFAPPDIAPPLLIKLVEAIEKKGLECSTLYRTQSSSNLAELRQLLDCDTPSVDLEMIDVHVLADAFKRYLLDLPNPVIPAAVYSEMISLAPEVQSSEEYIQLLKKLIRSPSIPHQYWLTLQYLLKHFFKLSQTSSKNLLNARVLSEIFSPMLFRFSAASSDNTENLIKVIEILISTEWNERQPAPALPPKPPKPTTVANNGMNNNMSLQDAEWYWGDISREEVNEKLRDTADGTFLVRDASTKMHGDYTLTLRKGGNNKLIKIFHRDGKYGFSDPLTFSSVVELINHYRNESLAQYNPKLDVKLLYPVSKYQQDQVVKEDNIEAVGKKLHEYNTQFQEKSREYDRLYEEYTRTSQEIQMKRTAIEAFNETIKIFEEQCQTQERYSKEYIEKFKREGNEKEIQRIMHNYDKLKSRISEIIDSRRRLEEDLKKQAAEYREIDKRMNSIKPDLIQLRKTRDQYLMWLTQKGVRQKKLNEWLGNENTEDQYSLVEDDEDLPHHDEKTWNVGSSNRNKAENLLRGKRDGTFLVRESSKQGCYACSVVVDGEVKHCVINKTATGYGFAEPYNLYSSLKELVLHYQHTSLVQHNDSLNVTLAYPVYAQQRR
Outline: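 PIP3 formation read by loss of energy transfer as it displaces biotin-PIP3 from a Eu anti-GST/GST-PH/streptavidin-APC complex, calibrated against PIP3 standards.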

PI3Kα = molecular target: T3, PI3Kα (Homo sapiens, UniProt P42336); assay: PI3Kα isoform profiling (PI3Kδ protocol); details: for IC50: 10 dose IC50
T3 construct: purchased Reaction Biology Corporation
T3 sequence (P42336 whole entry, canonical isoform): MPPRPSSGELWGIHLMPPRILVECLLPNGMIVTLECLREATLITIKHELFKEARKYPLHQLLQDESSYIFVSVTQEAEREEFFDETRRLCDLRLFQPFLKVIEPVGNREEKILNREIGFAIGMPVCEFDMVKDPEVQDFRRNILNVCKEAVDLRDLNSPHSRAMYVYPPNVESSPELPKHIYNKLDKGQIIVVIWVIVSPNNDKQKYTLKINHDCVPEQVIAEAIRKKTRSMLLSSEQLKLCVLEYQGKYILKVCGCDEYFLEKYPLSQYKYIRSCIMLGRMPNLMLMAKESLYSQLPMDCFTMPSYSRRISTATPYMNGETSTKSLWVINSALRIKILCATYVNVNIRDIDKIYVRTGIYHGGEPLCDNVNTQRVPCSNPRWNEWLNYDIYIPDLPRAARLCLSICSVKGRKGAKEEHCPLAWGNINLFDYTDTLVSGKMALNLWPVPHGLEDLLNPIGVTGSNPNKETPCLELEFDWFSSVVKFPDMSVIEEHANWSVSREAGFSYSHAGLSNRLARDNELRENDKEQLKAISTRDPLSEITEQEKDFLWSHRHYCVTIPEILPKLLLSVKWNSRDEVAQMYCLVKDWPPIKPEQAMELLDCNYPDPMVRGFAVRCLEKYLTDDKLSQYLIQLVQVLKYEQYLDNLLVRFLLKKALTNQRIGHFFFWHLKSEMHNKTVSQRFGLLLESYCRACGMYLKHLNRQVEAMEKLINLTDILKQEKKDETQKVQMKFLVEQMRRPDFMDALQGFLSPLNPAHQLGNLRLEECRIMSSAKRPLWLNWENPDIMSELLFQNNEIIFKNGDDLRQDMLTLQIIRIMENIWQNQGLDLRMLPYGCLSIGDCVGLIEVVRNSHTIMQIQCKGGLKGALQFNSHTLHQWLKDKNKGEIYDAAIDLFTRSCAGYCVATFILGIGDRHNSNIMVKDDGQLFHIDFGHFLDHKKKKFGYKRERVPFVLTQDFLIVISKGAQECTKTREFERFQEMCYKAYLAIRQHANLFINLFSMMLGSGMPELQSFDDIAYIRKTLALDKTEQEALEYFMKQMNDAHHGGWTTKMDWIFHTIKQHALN
T3 sequence (P27986 whole entry partner, canonical isoform): as the sequence (P27986 whole entry partner) above
Source text: (§1) PI3Kδ assay: The PIP3 product is detected by displacement of biotin-PIP3 from an energy transfer complex consisting of Europium labeled anti-GST monoclonal antibody, a GST-tagged pleckstrin homology (PH) domain, biotinylated PIP3 and Streptavidin-Allophycocyanin (APC). Excitation of Europium in the complex results in an energy transfer to the APC and a fluorescent emission at 665 nm. The PIP3 product formed by PI 3-Kinase(h) activity displaces biotin-PIP3 from the complex resulting in a loss of energy transfer and thus a decrease in signal. This is a 3-step reaction: First, the kinase reaction with PIP2 substrate is carried out in the presence of ATP (10 μM), and the reaction is quenched with stop Solution, and then finally detect by adding Detection Mixture followed by incubation (10 min). Reaction procedure: 1) Prepare substrate in freshly prepared Reaction Buffer. 2) Deliver kinase into the substrate solution and gently mix. 3) Deliver compounds in 100% DMSO (1 μM) into the kinase reaction mixture by Acoustic technology (Echo550; nanoliter range), incubate for 10 min at RT. 4) Deliver ATP into the reaction mixture to initiate the reaction. 5) Incubate for 30 min at 30° C. 6) Quench the reaction with Stop Solution. 7) Add Detection Mixture, and incubate for overnight. 8) Measure HTRF: Ex=320 nm, ratio of Em=615 nm and Em=665 nm. The emission ratio is converted into μM PIP3 production based on PIP3 standard curves. The nonlinear regression to obtain the standard curve and IC50 values are performed using Graphpad Prism software. Assay Buffer: HEPES 50 mM (pH7.0), NaN3 0.02%, BSA 0.01%, Orthovanadate 0.1 mM, 1% DMSO. Detection buffer: HEPES 10 mM (pH7.0), BSA 0.02%, KF 0.16 M, EDTA 4 mM. Substrate: 10 μM PIP2 substrate (PI(4,5)P2).
(§2) Compounds of the invention were profiled in a 10 dose IC50 panel against PI3Kα, PI3Kβ, and PI3Kγ kinases, provided by Reaction Biology Corporation, applied to the PI3Kδ protocol provided in Example B1.

PI3Kβ = molecular target: T4, PI3Kβ (Homo sapiens, UniProt P42338); assay: PI3Kβ isoform profiling (PI3Kδ protocol); details: for PI3Kβ @ 0.3 μM (% Inh): 0.3 μM compound; for IC50: 10 dose IC50
T4 construct: purchased Reaction Biology Corporation
T4 sequence (P42338 whole entry, canonical isoform): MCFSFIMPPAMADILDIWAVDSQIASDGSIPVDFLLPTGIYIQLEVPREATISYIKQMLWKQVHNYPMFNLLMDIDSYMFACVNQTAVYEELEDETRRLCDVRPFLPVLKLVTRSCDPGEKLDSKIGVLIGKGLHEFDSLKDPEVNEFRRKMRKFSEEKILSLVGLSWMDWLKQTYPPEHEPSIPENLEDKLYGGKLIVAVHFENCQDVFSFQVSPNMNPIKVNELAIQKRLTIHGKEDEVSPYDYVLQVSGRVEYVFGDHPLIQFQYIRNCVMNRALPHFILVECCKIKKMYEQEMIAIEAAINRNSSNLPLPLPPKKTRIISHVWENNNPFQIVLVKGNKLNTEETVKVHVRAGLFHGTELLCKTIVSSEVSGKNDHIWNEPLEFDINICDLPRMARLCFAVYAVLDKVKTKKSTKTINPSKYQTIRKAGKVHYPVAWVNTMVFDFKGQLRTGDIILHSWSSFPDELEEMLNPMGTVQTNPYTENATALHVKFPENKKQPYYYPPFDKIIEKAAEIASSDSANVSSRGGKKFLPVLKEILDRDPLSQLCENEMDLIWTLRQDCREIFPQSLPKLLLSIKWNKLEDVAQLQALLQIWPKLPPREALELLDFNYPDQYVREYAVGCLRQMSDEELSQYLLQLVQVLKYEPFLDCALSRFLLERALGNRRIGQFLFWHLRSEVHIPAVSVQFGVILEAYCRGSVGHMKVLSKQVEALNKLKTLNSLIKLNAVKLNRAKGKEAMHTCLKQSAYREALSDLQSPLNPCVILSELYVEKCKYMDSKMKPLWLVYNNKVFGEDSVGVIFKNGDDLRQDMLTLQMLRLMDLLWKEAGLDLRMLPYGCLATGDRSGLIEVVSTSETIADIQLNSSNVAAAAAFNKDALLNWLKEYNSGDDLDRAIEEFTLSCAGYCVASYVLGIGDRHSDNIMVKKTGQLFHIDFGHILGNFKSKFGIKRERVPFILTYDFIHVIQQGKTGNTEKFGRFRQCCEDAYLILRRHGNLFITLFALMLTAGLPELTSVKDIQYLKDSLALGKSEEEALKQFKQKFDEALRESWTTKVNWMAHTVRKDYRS
T4 sequence (P27986 whole entry partner, canonical isoform): as the sequence (P27986 whole entry partner) above
Source text: as §1, §2

Row | Structure (SMILES) | TEC @ 0.3 μM (% Inh) (TEC) | PI3Kδ @ 0.1 μM (% Inh) (PI3Kδ) | PI3Kδ @ 1 μM (% Inh) (PI3Kδ) | IC50 (PI3Kδ) [µM] | IC50 (PI3Kα) [µM] | PI3Kβ @ 0.3 μM (% Inh) (PI3Kβ) | PI3Kδ @ 0.01 μM (% Inh) (PI3Kδ) | IC50 (TEC) [µM] | IC50 (PI3Kβ) [µM] | PI3Kα @ 0.3 μM (% Inh) (PI3Kα; 0.3 μM compound)
1 | Nc1ncnc2c1c(-c1cc(F)c3c(c1)NCCO3)nn2C1Cc2ccccc2C1 [Compound No. 84, 1-(2,3-dihydro-1H-inden-2-yl)-3-(8-fluoro-3,4-dihydro-2H-1,4-benzoxazin-6-yl)-1H-pyrazolo[3,4-d]pyrimidin-4-amine] | 23.9 | 53.06 | 88.36 | 0.0348 | 0.638 | 27.83 |  |  |  | 
2 | Nc1ncnc2c1c(-c1ccc(Cl)c(O)c1)cn2C1Cc2ccccc2C1 [Compound No. 93, 5-[4-amino-7-(2,3-dihydro-1H-inden-2-yl)-7H-pyrrolo[2,3-d]pyrimidin-5-yl]-2-chlorophenol] | 106.37 | 59.57 |  | 0.0212 | 0.0509 | 47.09 | 24.46 |  |  | 
3 | Nc1ncnc2c1c(-c1ccc(Cl)c(O)c1F)nn2C1Cc2ccccc2C1 [Compound No. 100, 3-[4-amino-1-(2,3-dihydro-1H-inden-2-yl)-1H-pyrazolo[3,4-d]pyrimidin-3-yl]-6-chloro-2-fluorophenol] | 102.76 | 71.71 |  | 0.0447 | 0.0701 | 39.8 | 29.01 |  |  | 
4 | Nc1ncnc2c1c(-c1cc(O)c(F)c(F)c1)cn2C1Cc2ccccc2C1 [Compound No. 101, 5-[4-amino-7-(2,3-dihydro-1H-inden-2-yl)-7H-pyrrolo[2,3-d]pyrimidin-5-yl]-2,3-difluorophenol] | 91.2 | 62.53 |  | 0.0621 | 0.12 | 41.93 | 26.61 |  |  | 
5 | Nc1ncnc2c1c(-c1cc(O)c(F)c(C(F)(F)F)c1)nn2C1Cc2ccccc2C1 [Compound No. 102, 5-[4-amino-1-(2,3-dihydro-1H-inden-2-yl)-1H-pyrazolo[3,4-d]pyrimidin-3-yl]-2-fluoro-3-(trifluoromethyl)phenol] | −3.89 | 93.99 | 100.0 | 0.0025 | 0.0211 | 67.67 |  |  |  | 
6 | Nc1ncnc2c1c(-c1cc(O)c(Cl)c(Cl)c1)cn2C1Cc2ccccc2C1 [Compound No. 107, 5-[4-amino-7-(2,3-dihydro-1H-inden-2-yl)-7H-pyrrolo[2,3-d]pyrimidin-5-yl]-2,3-dichlorophenol] | 87.72 |  |  | 0.0129 | 0.0565 | 49.12 |  |  |  | 
7 | Nc1ncnc2c1c(-c1cc(O)cc(F)c1)nn2C1Cc2ccccc2C1 [compound 3, 3-(4-amino-1-(2,3-dihydro-1H-inden-2-yl)-1H-pyrazolo[3,4-d]pyrimidin-3-yl)-5-fluorophenol] |  |  |  | 0.0079 | 0.0201 |  |  | 0.182 | 0.0908 | 
8 | Nc1ncnc2c1c(-c1cc(O)cc(F)c1)nn2C1CCc2ccccc2C1 (centres unmarked) [compound 6, 3-(4-amino-1-(1,2,3,4-tetrahydronaphthalen-2-yl)-1H-pyrazolo[3,4-d]pyrimidin-3-yl)-5-fluorophenol] |  |  |  | 0.0086 | 0.0201 |  |  | 0.28 | 0.105 | 
9 | C=CC(=O)N1CC(n2nc(-c3cc(O)cc(F)c3)c3c(N)ncnc32)Cc2cc(C)ccc21 (centres unmarked) [compound 31, 1-(3-(4-amino-3-(3-fluoro-5-hydroxyphenyl)-1H-pyrazolo[3,4-d]pyrimidin-1-yl)-6-methyl-3,4-dihydroquinolin-1(2H)-yl)prop-2-en-1-one] | 57.08 | 44.38 |  | 0.0336 | 0.539 | 52.63 |  | 24.3 | 0.927 | 50.6
10 | Nc1ncnc2c1c(-c1cc(O)cc(F)c1)nn2C1Cc2ccc(F)cc2C1 (centres unmarked) [compound 57, 3-[4-amino-1-(5-fluoro-2,3-dihydro-1H-inden-2-yl)-1H-pyrazolo[3,4-d]pyrimidin-3-yl]-5-fluorophenol] | 40.21 | 96.89 | 100.0 | 0.008 | 0.0711 | 60.98 |  |  |  | 
11 | Nc1ncnc2c1c(-c1cc(O)c(F)c(Cl)c1)cn2C1Cc2ccccc2C1 [compound 110, 5-[4-amino-7-(2,3-dihydro-1H-inden-2-yl)-7H-pyrrolo[2,3-d]pyrimidin-5-yl]-3-chloro-2-fluorophenol] | 89.37 | 76.2 |  | 0.0119 | 0.0835 | 50.12 | 40.85 |  |  | 
